# Test results published in patent publication US20250186600A1, “EXCIPIENT COMPOUNDS FOR PROTEIN FORMULATIONS” (Comera Life Sciences, Inc., priority 2020, published 2025).
# Counter-ions that a name gives are not always drawn.
# Key:
# [1] = Table 13; versus 79.7 cP with no excipient
# ustekinumab [2] = experiment: Thermal stability at 65° C., monomer by SE-HPLC (Example 46); type: physicochemical; conditions: excipient 5 mg/mL, ustekinumab 1 mg/mL, 20 mM histidine pH 6.0, incubated at 65° C.
# Text: Therapeutic proteins are frequently subjected to fluctuations in temperatures which may lead to changes in tertiary and secondary structural elements. This can lead to aggregation of the protein and decrease the amount of active native protein. […] All excipients used in this Example, listed in Table 47 below, were of the highest purity, and were obtained from Sigma Aldrich (St. Louis, MO) or Cayman Chemical (Ann Arbor, MI).
# ustekinumab [3] = experiment: Stabilization at low pH, Sypro orange fluorescence (Example 45); conditions: excipient 5 mg/mL, ustekinumab 1 mg/mL, glycine acidification buffer pH 2.6, Sypro orange fluorescence
# ustekinumab [4] = experiment: Urea denaturation, Sypro orange fluorescence (Example 44); type: physicochemical; conditions: excipient 5 mg/mL, ustekinumab 1 mg/mL, 6M urea, 20 mM histidine pH 6.0, Sypro orange fluorescence
# ustekinumab [5] = experiment: Thermal stability at 65 deg C., increase in percent monomer by SE-HPLC (Example 55); type: physicochemical; conditions: excipient 5 mg/mL, ustekinumab 1 mg/mL, 20 mM Histidine pH 6.0, 65 deg C., 120 min
# Text: Therapeutic proteins are frequently subjected to fluctuations in temperatures, which may lead to changes in their tertiary and secondary structural elements. This leads to aggregation of the protein and a decrease in the active native species.
# ustekinumab-FITC [6] = experiment: Thermal stability of model ADC at 65° C. by SE-HPLC (Example 56); conditions: excipient 5 mg/mL, ustekinumab-FITC 1 mg/mL, 20 mM Histidine pH 6.0, 65° C.
# omalizumab [7] = experiment: Freeze-thaw stability, light scattering at 350 nm (Example 48); type: physicochemical; conditions: excipient 5 mg/mL, omalizumab 5 mg/mL, 20 mM histidine pH 6.0, at least 5 freeze (−80° C.)/thaw cycles
# omalizumab [8] = experiment: Freeze/thaw stress (6 cycles), monomer by SE-HPLC (Example 57); type: physicochemical; conditions: excipient 100 mM, omalizumab 2 mg/mL, 20 mM Histidine pH 6.0, freeze (−80° C.)/thaw
# Procedure: Therapeutic proteins are frequently kept at low temperatures to improve their kinetic stability and minimize structural perturbations that could lead to the aggregation of the protein and a decrease in the active native species. In certain cases, this might be done by freezing the formulation until use. However, the low temperatures, concentration gradients, and ice formation during repeated freezing and thawing can stress the protein. […] The formulations were then aliquoted into 0.5 mL cryovials and frozen at −80° C. for 120 min. The samples were then thawed using a water bath kept at room temperature.
# omalizumab [9] = experiment: Mechanical shear stress (agitation 72 h), absorbance at 350 nm (Example 47); type: physicochemical; conditions: excipient 0.5 mg/mL, omalizumab 2 mg/mL, 22° C., 72 h agitation at 300 rpm
# Procedure: Excipients that offer protection against shear stresses were identified by agitating therapeutic protein solutions in the presence of the test excipients (listed in Table 48 below) and observing any change in the number of aggregated particles. […] The samples were transferred to a 0.5 mL cryogenic vial (ThermoFisher, Waltham MA) and secured to an orbital shaker. They were then incubated at 22° C. for 72 h with agitation set at 300 rpm. At the end of incubation period, 100 μL of each sample was transferred to 96-well plates, and the absorbance was measured at 350 nm. Any increase in aggregation was measured by observing the changes in light scattering at 350 nm, and comparing those changes to the light scattering at 350 nm of a control formulation (prepared identically to the test samples but without the addition of the excipient). Excipients that are protective in nature were identified by their ability to slow the rate of aggregation and decrease the A350 absorbance value after the agitation step.
# nivolumab = experiment: Thermal stability of nivolumab at 40 C for 4 weeks, SE-HPLC (Example 69); conditions: Excipient added at 400 mM; nivolumab 10 mg/ml, 5 mM phosphate pH 7.5, 40 C for 4 weeks
# ustekinumab [10] = experiment: Accelerated aging at 40° C. for 4 weeks, monomer by SE-HPLC (Example 58); type: physicochemical; conditions: excipient 100 mM, ustekinumab 2 mg/mL, 20 mM Histidine pH 6.0, 40° C. for 4 weeks
# Procedure: 1 mL of each sample was aliquoted into 2 mL glass vials (West Pharmaceutical services, PA) and incubated at 40° C. for 4 weeks. The aliquots were withdrawn after 0, 1, 2, 3, and 4 weeks.
# pembrolizumab = experiment: Thermal stability of pembrolizumab at 40 C for 4 weeks, SE-HPLC (Example 70); conditions: Excipient added at 400 mM; pembrolizumab 10 mg/ml, 5 mM phosphate pH 7.5, 40 C for 4 weeks
# infliximab [11] = experiment: Thermal stability at 50° C. with caffeine and excipients, SE-HPLC (Example 63); type: physicochemical; conditions: excipient 0.5 M, caffeine 50 mM, infliximab 10 mg/mL, 5 mM phosphate pH 7.5, 50° C., 180 min
# Procedure: Therapeutic proteins stress leads to aggregation of the protein and a decrease in the active native species. […] The aliquots were withdrawn at 0 min, 90 min and 180 min. […] Diode array detector.
# [12] = Caffeine solubility testing with co-solutes at ambient temperature (Examples 31-32); conditions: with co-solute
# Procedure: Prepared solutions were used either neat or diluted with deionized water.
# A small magnetic stir bar was added to the vial, and the solution was allowed to mix vigorously on a stir plate for about 10 minutes.
# ustekinumab-FITC [13] = experiment: Mechanical shear stability of ustekinumab-FITC, particle radius by DLS (Example 60); conditions: ustekinumab-FITC 1 mg/mL, 20 mM histidine pH 6, 300 rpm 72 h 23° C.
# [14] = test system: bovine gamma globulin (BGG); experiment: Normalized viscosity of BGG with caffeine and a secondary excipient (Example 40); type: physicochemical; conditions: Excipient A caffeine 15 mg/mL + Excipient B 14 mg/mL; BGG about 280 mg/mL, 20 mM histidine pH 6, 25° C.
# infliximab [15] = experiment: Thermal degradation assay at 55° C., normalized monomer loss rate by HP-SEC (Example 51); type: physicochemical; conditions: infliximab about 2 mg/mL, 20 mM phosphate pH 7, 55° C.
# Procedure: ® infliximab was obtained from the Clinigen Group and reconstituted according to the instructions in the Janssen package insert, resulting in a 10 mg/mL infliximab solution in 5 mM phosphate buffer, pH about 7, with 50 mg/mL sucrose and 0.05 mg/mL polysorbate 80. The reconstituted drug product was then combined 1:1 by volume with 50 mM sodium acetate buffer at pH 5. The resulting solution was then injected onto a small preparative scale cation exchange column (GE Healthcare, Chicago, IL). After the infliximab was loaded onto the column, the column was washed with 10 column volumes of 50 mM sodium acetate buffer, pH 5. The infliximab was then eluted from the column with five column volumes of a 250 mM sodium chloride, 50 mM sodium acetate buffer at pH 5. […] Stock solutions of either 4 or 8 mg/mL infliximab in 20 mM phosphate buffer at pH 7 were then used in subsequent tests.
# All excipients used in this Example, listed in Table 52 below, were of the highest purity, and were obtained from Sigma Aldrich (St. Louis, MO) or Cayman Chemical (Ann Arbor, MI). The stock infliximab solutions were mixed with stock excipient solutions containing the excipients listed in Table 52 formulated in 20 mM phosphate buffer, pH 7 to achieve a final infliximab concentration of about 2 mg/mL in each sample. The samples containing the infliximab solutions and the stock excipient solutions were then aliquoted into five 100 μL aliquots in PCR tubes. […] These stressed samples were then analyzed for monomer content by high performance size exclusion chromatography (HP-SEC) using an Agilent 1100 series HPLC equipped with a diode array detector monitoring absorbance at 280 nm. […] For each sample, the monomer peak area was divided by the monomer peak area obtained from an identical but unstressed sample to obtain the percent monomer remaining after exposure to thermal stress. The remaining monomer as a percentage of the unstressed sample was then plotted as a function of incubation time and the absolute value of the slope of a linear fit to the data was recorded as the monomer loss rate.
molecule,measurement,setting,value
O=C(O)CC(O)(CC(=O)O)C(=O)O,Viscosity Reduction (%),[1],6.0%
Nc1ncnc2c1ncn2[C@@H]1O[C@H](CO)[C@@H](O)[C@H]1O [Adenosine],Monomer Fraction % change from control,ustekinumab [2],8.4%
same,% change in stability,ustekinumab [3],32.2%
same,% increased stability,ustekinumab [4],53.6%
O=C[C@@H](O)[C@H](O)[C@H](O)[C@H](O)CO [Altrose],% increase in monomer content vs. control,ustekinumab [5],2.8%
same,% increase in monomer content vs. control,ustekinumab-FITC [6],63.41%
OC[C@@H](O)C(O)[C@H](O)CO [Arabitol],% reduction in light scattering at 350 nm vs. control,omalizumab [7],17.8%
same,Monomer Fraction % change from control,ustekinumab [2],6.0%
same,% change in stability,ustekinumab [3],3.4%
same,% increased stability,ustekinumab [4],2.7%
O=C1O[C@@H]([C@H](O)CO)[C@@H](O)[C@H]1O [Gulonolactone],% increase in monomer content vs. control,ustekinumab [5],2.6%
same,% increase in monomer content vs. control,omalizumab [8],10.02%
same,% increase in monomer content vs. control,ustekinumab-FITC [6],79.95%
C[C@]1(OC(=O)/C=C/c2ccccc2)C[C@@H](O)[C@]2(O)C=CO[C@@H](O[C@@H]3O[C@H](CO)[C@@H](O)[C@H](O)[C@H]3O)[C@@H]21 [Harpagoside],% decrease of A350 signal vs. control,omalizumab [9],69.0%
OC[C@H]1O[C@@](CO)(OC[C@@]2(O[C@H]3O[C@H](CO)[C@@H](O)[C@H](O)[C@H]3O)O[C@H](CO)[C@@H](O)[C@@H]2O)[C@@H](O)[C@@H]1O [Kestose],% increase in monomer content vs. control,ustekinumab [5],5.9%
same,% increase in monomer content vs. control,omalizumab [8],71.18%
same,% Monomer remaining,nivolumab,92.4%
same,% increase in monomer content vs. control,ustekinumab [10],8.4%
same,% Monomer remaining,pembrolizumab,82.6%
O=C(O)[C@H](O)[C@@H](O)[C@H](O[C@@H]1O[C@H](CO)[C@H](O)[C@H](O)[C@H]1O)[C@H](O)CO [Lactobionic acid],% change compared to control,infliximab [11],20.8%
same,% Monomer remaining,nivolumab,89.8%
same,% Monomer remaining,pembrolizumab,82.1%
OC[C@H]1O[C@@](CO)(O[C@H]2O[C@H](CO)[C@@H](O)[C@H](O)[C@H]2O)[C@@H](O[C@H]2O[C@H](CO)[C@@H](O)[C@H](O)[C@H]2O)[C@@H]1O [Melzitose],Monomer Fraction % change from control,ustekinumab [2],2.0%
same,% change in stability,ustekinumab [3],2.0%
same,% increased stability,ustekinumab [4],4.7%
C[C@H](CC[C@@H](O[C@@H]1O[C@H](CO[C@@H]2O[C@H](CO)[C@@H](O)[C@H](O)[C@H]2O)[C@@H](O)[C@H](O)[C@H]1O[C@@H]1O[C@H](CO)[C@@H](O)[C@H](O)[C@H]1O)C(C)(C)O)[C@H]1CC[C@@]2(C)[C@@H]3CC=C4[C@@H](CC[C@H](O[C@@H]5O[C@H](CO[C@@H]6O[C@H](CO)[C@@H](O)[C@H](O)[C@H]6O)[C@@H](O)[C@H](O)[C@H]5O)C4(C)C)[C@]3(C)[C@H](O)C[C@]12C [Mogroside V],% decrease of A350 signal vs. control,omalizumab [9],68.2%
CC(=O)N[C@@H]1C(O)O[C@H](CO)[C@@H](O)[C@@H]1O (stereo partly drawn) [N-Acetyl Mannosamine],% increase in monomer content vs. control,ustekinumab [5],3.1%
same,% increase in monomer content vs. control,ustekinumab-FITC [6],23.49%
same,% increase in monomer content vs. control,ustekinumab [10],4.4%
CO[C@H]1[C@H](O)[C@@H](O)[C@@H](O)[C@H](O)[C@@H]1O [Pinitol],% change compared to control,infliximab [11],13.1%
same,% Monomer remaining,nivolumab,85.6%
same,% Monomer remaining,pembrolizumab,79.2%
"O=P([O-])([O-])[O-].[K+].[K+].[K+] [Potassium phosphate, potassium phosphate tribasic]",Viscosity Reduction (%),[1],9.3%
"CCN(CC)CCOC(=O)c1ccc(N)cc1 [Procaine HCl, reference compound]",dissolution of caffeine relative to the reported caffeine solubility limit,[12],at least about four times
C=C1C[C@@]23CC[C@H]4[C@@](C)(CCC[C@@]4(C)C(=O)O[C@@H]4O[C@H](CO)[C@@H](O)[C@H](O)[C@H]4O)[C@@H]2CC[C@]1(O[C@@H]1O[C@H](CO)[C@@H](O)[C@H](O)[C@H]1O)C3 [Rubusoside],DLS particle radius (nm) after shear test,ustekinumab-FITC [13]; excipient 8.3 mg/mL,6.2 nm
"O=C1NS(=O)(=O)c2ccccc21.[Na] [Saccharin, Na, saccharin sodium salt]",dissolution of caffeine relative to the reported caffeine solubility limit,[12],at least about four times
O=C(CO)[C@@H](O)[C@H](O)[C@H](O)[C@H](O)CO [Sedoheptulose],% increase in monomer content vs. control,ustekinumab [5],4.1%
same,Monomer Fraction % change from control,ustekinumab [2],3.4%
same,% change in stability,ustekinumab [3],2.6%
same,% increased stability,ustekinumab [4],3.7%
same,% increase in monomer content vs. control,omalizumab [8],11.35%
same,% increase in monomer content vs. control,ustekinumab-FITC [6],37.68%
same,% increase in monomer content vs. control,ustekinumab [10],7.7%
O=S(=O)([O-])[O-].[Na+].[Na+] [Sodium sulfate],Normalized Viscosity,[14],0.78
same,Viscosity Reduction (%),[1],5.8%
O=C(CO)[C@@H](O[C@H]1O[C@H](CO)[C@@H](O)[C@H](O)[C@H]1O)[C@H](O)[C@H](O)CO [Turanose],% increase in monomer content vs. control,ustekinumab [5],5.8%
same,% increase in monomer content vs. control,omalizumab [8],75.99%
same,% increase in monomer content vs. control,ustekinumab-FITC [6],48.06%
same,% increase in monomer content vs. control,ustekinumab [10],8.3%
Cl.NCCc1ccc(O)cc1 [Tyramine HCl],dissolution of caffeine relative to the reported caffeine solubility limit,[12],at least about four times
OC[C@H]1O[C@H](O[C@H]2O[C@H](CO)[C@@H](O)[C@H](O)[C@H]2O)[C@H](O)[C@@H](O)[C@@H]1O [trehalose],% change in stability,ustekinumab [3],2.5%
same,% increase in monomer content vs. control,omalizumab [8],77.68%
same,Monomer loss rate,infliximab [15]; excipient 200 mM,0.0737 % mon/min
same,Normalized monomer loss rate,infliximab [15]; excipient 200 mM,0.460
same,Monomer loss rate,infliximab [15]; excipient 250 mM,0.0781 % mon/min
same,Normalized monomer loss rate,infliximab [15]; excipient 250 mM,0.488
Madecassoside,DLS particle radius (nm) after shear test,ustekinumab-FITC [13]; excipient 5 mg/mL,6.4 nm
same,% decrease of A350 signal vs. control,omalizumab [9],73.2%
Rebaudioside A,DLS particle radius (nm) after shear test,ustekinumab-FITC [13]; excipient 5 mg/mL,5.8 nm
same,% decrease of A350 signal vs. control,omalizumab [9],73.2%
